This note sets out measurements from patent US4476129A, “4-[2-[Bis(halophenyl)methoxy]-ethyl]-α-(substituted phenyl)-1-piperazinealkanol derivatives, processes for their preparation and pharmaceutical preparations containing them” (priority 1982, dated 1984).

Test [1] relates to stereotyped behaviour in female Wistar rats. In words: Stereotypy in the rat (stereotyped behaviour). The test is classed as in vivo. Particulars: 50% of the maximal effect, observed 15-300 minutes after administration; for ED50: Rattus norvegicus, po; for ED50, stereotyped behaviour: p.o. The procedure:
C. Stereotypy in the rat.
The stereotyped behavior appearing in the rat after administration of centrally active dopaminergic substances can be regarded as a relevant test for antiparkinson agents.
The tests were carried out with female Wistar rats under conditions with a low level of stimuli. The behaviour of the rats was observed on 15, 30, 60, 120, 180, 240 and 300 minutes after administration of the substance, the following parameters being considered:
The total impression of the intensity of stereotypy was noted according to the following rating:
For each dose a group of four rats was used, so that the total score for the seven observations was maximally 7×4×3=84.

The target of test [2] is T1, dopamine receptors (Rattus norvegicus, UniProt P61169).
T1 construct: membrane fraction of the corpus striatum of the rat; from tissue; host or cells: rat corpus striatum, membrane fraction
Description: Affinity to dopamine receptors (receptor binding). On the procedure: (§1) B. Affinity to dopamine receptors.
(§2) The affinity of the compounds to the dopamine receptors in a membrane fraction of the corpus striatum of the rat was determined as described by D. R. Burt et al., Mol. Pharmacol., 12, 800-812 (1976), dopamine and the dopamine antagonist haloperiodol being used as radioactive labelled ligands. The IC50-value is the concentration of the piperazine derivatives necessary to inhibit the specific binding of dopamine, or haloperiodol for 50%.

The target in test [3] is dopamine receptors. Description: Affinity to dopamine receptors (receptor binding). More on the design: species or system rat. The note with it: membrane fraction of corpus striatum of the rat, radioactive labelled dopamine as ligand. On the procedure:
as §1, §2

Test [4] deals with dopamine uptake by striatal synaptosomes (corpus striatum of the rat). Description: Inhibition of re-uptake of dopamine by striatal synaptosomes. The test is classed as biochemical. The note with it: radioactive labelled dopamine. On the procedure:
A. Inhibition of re-uptake of dopamine by striatal synaptosomes.
The re-uptake process is the most important physiological mechanism causing inactivation of neurotransmitters like dopamine, which are released into the synaptic cleft by a nervous impulse. Inhibition of the dopamine uptake will lead to increased concentration of dopamine in the synaptic cleft and potentiation of the dopamine effect on the post-synaptic receptor. This inhibition was examined in vitro by incubation of synaptosomes of the corpus striatum of the rat with radioactive labelled dopamine, as described by P. van der Zee and W. Hespe, Neuropharmacol. 17, 483-490 (1978). Measurements were made of the concentration of the test compound giving 50% inhibition of the uptake (IC50).

The mark [5] stands for this setting: membrane fraction of corpus striatum of the rat, radioactive labelled haloperidol (dopamine antagonist) as ligand, read-out: IC50, receptor binding haloperidol.

Where “and” joins values, the source holds several entries; their conditions need not be identical. Equal values may be shown once. Where a name gives a salt, the structure may show the parent alone. Read-outs that look alike come from different tables or passages of the source.

T1 sequence (P61169 whole entry): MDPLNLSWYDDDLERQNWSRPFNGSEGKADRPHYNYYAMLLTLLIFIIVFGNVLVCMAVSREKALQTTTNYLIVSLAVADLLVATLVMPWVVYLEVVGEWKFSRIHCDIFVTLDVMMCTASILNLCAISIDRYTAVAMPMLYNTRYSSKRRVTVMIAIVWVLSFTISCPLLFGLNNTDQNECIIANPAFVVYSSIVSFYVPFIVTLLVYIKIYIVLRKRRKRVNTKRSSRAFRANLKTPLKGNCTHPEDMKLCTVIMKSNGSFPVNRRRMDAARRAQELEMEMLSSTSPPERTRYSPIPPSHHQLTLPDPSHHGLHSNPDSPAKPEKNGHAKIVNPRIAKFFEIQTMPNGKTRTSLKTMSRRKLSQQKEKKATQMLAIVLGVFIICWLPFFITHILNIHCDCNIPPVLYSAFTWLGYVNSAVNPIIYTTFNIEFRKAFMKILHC

`OC(CN1CCN(CCOC(c2ccc(F)cc2)c2ccc(F)cc2)CC1)c1ccccc1` (stereo not drawn) [Compound 1, 4-[2-[bis(4-fluorophenyl)methoxy]ethyl]-α-phenyl-1-piperazineethanol] had an ED50 in test [1] of 17.5 mg/kg. Further, the IC50 in test [2] (setting [5]) was 0.78 µM; in test [3], 0.0467 µM; in test [4], 0.0265 µM.
Consider `OC(CCN1CCN(CCOC(c2ccc(F)cc2)c2ccc(F)cc2)CC1)c1ccccc1` (stereo not drawn) [Compound 2, 4-[2-[bis(4-fluorophenyl)methoxy]ethyl]-α-phenyl-1-piperazinepropanol], for which the IC50 in test [2] was found to be 0.307 µM; in test [3], 0.0133 µM; in test [4], 0.0013 µM.
Take `OC(CCN1CCN(CCOC(c2ccc(F)cc2)c2ccc(F)cc2)CC1)c1ccc(F)cc1` (stereo not drawn) [Compound 3, 4-[2-[bis(4-fluorophenyl)methoxy]ethyl]-α-(4-fluorophenyl)-1-piperazinepropanol]: the 50% effective dose (ED50) in test [1] is 1.7 mg/kg. Also, the “ED50, stereotyped behaviour” value in test [1] was 2.3 mg/kg p.o. and 1.3 mg/kg p.o. Further, the half-inhibitory concentration (IC50) was 0.61 µM in test [2] (setting [5]), 0.0087 µM in test [3] and 0.0082 µM in test [4].
The compound `OC(Cc1ccccc1)CN1CCN(CCOC(c2ccc(F)cc2)c2ccc(F)cc2)CC1` (stereo not drawn) [Compound 4, 4-[2-[bis(4-fluorophenyl)methoxy]ethyl]-α-(phenylmethyl)-1-piperazineethanol] returned an ED50 in test [1] of approximately 6 mg/kg. Moreover, the figures for the half-maximal inhibitory concentration (IC50) in test [2] (setting [5]), in test [3] and in test [4] were 0.546 µM, 0.0305 µM and 0.0054 µM, respectively.
Taken in the same sequence, the figures for `CC(O)(CCN1CCN(CCOC(c2ccc(F)cc2)c2ccc(F)cc2)CC1)c1ccccc1` (stereo not drawn) [Compound 5, 4-[2-[bis(4-fluorophenyl)methoxy]ethyl]-α-phenyl-α-methyl-1-piperazinepropanol] were 14 mg/kg, 0.283 µM, 0.0223 µM and 0.0024 µM.
Taken in the same sequence, the figures for `CC(O)(CCN1CCN(CCOC(c2ccc(F)cc2)c2ccc(F)cc2)CC1)c1ccc(F)cc1` (stereo not drawn) [Compound 6, 4-[2-[bis(4-fluorophenyl)methoxy]ethyl]-α-(4-fluorophenyl)-α-methyl-1-piperazinepropanol] were 11.4 mg/kg, 0.277 µM, 0.0323 µM and 0.0067 µM.
Taken in the same sequence, the figures for `CCC(O)(CCN1CCN(CCOC(c2ccc(F)cc2)c2ccc(F)cc2)CC1)c1ccccc1` (stereo not drawn) [Compound 7, 4-[2-[bis(4-fluorophenyl)methoxy]ethyl]-α-ethyl-α-phenyl-1-piperazinepropanol] were 26 mg/kg, 0.361 µM, 0.063 µM and 0.0221 µM.
In the case of `OC(CCCN1CCN(CCOC(c2ccc(F)cc2)c2ccc(F)cc2)CC1)c1ccccc1` (stereo not drawn) [Compound 8, 4-[2-[bis(4-fluorophenyl)methoxy]ethyl]-α-phenyl-1-piperazinebutanol], in test [1], the median effective dose (ED50) came out at 6.2 mg/kg. Also, in test [1], the “ED50, stereotyped behaviour” value stood at 4.6 mg/kg p.o. Besides, the figures for the IC50 in test [2] (setting [5]), in test [3] and in test [4] were 0.445 µM, 0.004 µM and 0.0034 µM, respectively.
Turning to `Cl.Cl.OC(CCCN1CCN(CCOC(c2ccc(F)cc2)c2ccc(F)cc2)CC1)c1ccc(F)cc1` (stereo not drawn) [Compound 9, 4-[2-[bis(4-fluorophenyl)methoxy]ethyl]-α-(4-fluorophenyl)-1-piperazinebutanol dihydrochloride], the ED50 in test [1] is less than 5 mg/kg. Besides, the results for the concentration for half-maximal inhibition (IC50) in test [2], in test [3] and in test [4] were 0.492 µM, 0.0181 µM and 0.0028 µM, respectively.
`O=C(CN1CCN(CCOC(c2ccc(F)cc2)c2ccc(F)cc2)CC1)c1ccccc1` [Compound 10, 2-[4-[2-[bis(4-fluorophenyl)methoxy]ethyl]-1-piperazinyl]-1-phenylethanonedihydrochloride]: the IC50 in test [2] (setting [5]) is 0.524 µM; in test [3], 0.055 µM; in test [4], 0.0283 µM.
As to `O=C(CCN1CCN(CCOC(c2ccc(F)cc2)c2ccc(F)cc2)CC1)c1ccccc1` [Compound 11, 3-[4-[2-[bis(4-fluorophenyl)methoxy]ethyl]-1-piperazinyl]-1-phenyl-1-propanone], in test [1], the median effective dose (ED50) was less than 5.5 mg/kg. The IC50 came to 0.268 µM in test [2], 0.0803 µM in test [3] and 0.0397 µM in test [4].
In test [1], `O=C(CCN1CCN(CCOC(c2ccc(F)cc2)c2ccc(F)cc2)CC1)c1ccc(F)cc1` [Compound 12, 3-[4-[2-[bis(4-fluorophenyl)methoxy]ethyl]-1-piperazinyl]-1-(4-fluorophenyl)-1-propanone] had an ED50 of 5.5 mg/kg. Besides, the IC50 in test [2] (setting [5]) turned out to be 0.467 µM; in test [3], 0.18 µM; in test [4] it was 0.0354 µM.
In the case of `Cl.Cl.O=C(Cc1ccccc1)CN1CCN(CCOC(c2ccc(F)cc2)c2ccc(F)cc2)CC1` [Compound 13, 1-[4-[2-[bis(4-fluorophenyl)methoxy]ethyl]-1-piperazinyl]-3-phenyl-2-propanone dihydrochloride], the ED50 in test [1] came out at 9.1 mg/kg. Further, the IC50 in test [2] amounted to 0.545 µM; in test [3], 0.076 µM; in test [4], 0.027 µM.
For `Cl.Cl.O=C(CCCN1CCN(CCOC(c2ccc(F)cc2)c2ccc(F)cc2)CC1)c1ccccc1` [Compound 14, 4-[4-[2-[bis(4-fluorophenyl)methoxy]-ethyl]-1-piperazinyl]-1-phenyl-1-butanone dihydrochloride], in that order: 18 mg/kg, 0.0233 µM, 0.0155 µM and 0.0025 µM.
Taken in the same sequence, the figures for `O=C(CCCN1CCN(CCOC(c2ccc(F)cc2)c2ccc(F)cc2)CC1)c1ccc(F)cc1` [Compound 15, 4-[4-[2bis(4-fluorophenyl)methoxy]ethyl]-1-piperazinyl]-1-(4-fluorophenyl)-1-butanone dihydrochloride] were more than 46 mg/kg, 0.019 µM, 0.291 µM and 0.0052 µM.
For `COC(CCN1CCN(CCOC(c2ccc(F)cc2)c2ccc(F)cc2)CC1)c1ccccc1.Cl.Cl` (stereo not drawn) [Compound 16, 1-[2-[bis-(4-fluorophenyl)methoxy]ethyl]-4-(3-phenyl-3-methoxypropyl]piperazine dihydrochloride], in that order: 4.6 mg/kg, 0.523 µM, 0.05 µM and 0.0132 µM.
`CNC(=O)OC(CCN1CCN(CCOC(c2ccc(F)cc2)c2ccc(F)cc2)CC1)c1ccccc1` (stereo not drawn) [Compound 17, methylcarbaminic 3-[4-[2-[bis(4-fluorophenyl)methoxy]ethyl]-1-piperazinyl]-1-phenylpropyl]ester (Z)-2-butendioate (1:2)] displayed a 50% effective dose (ED50) in test [1] of 4.3 mg/kg. Further, the “ED50, stereotyped behaviour” value in test [1] stood at 7.2 mg/kg p.o. For the same compound, the results for the IC50 in test [2], in test [3] and in test [4] were 0.0973 µM, 0.0272 µM and 0.0049 µM, respectively.
`CCNC(=O)OC(CCN1CCN(CCOC(c2ccc(F)cc2)c2ccc(F)cc2)CC1)c1ccccc1` (stereo not drawn) [Compound 18, Ethylcarbaminic[3-[4-[2-[bis(fluorophenyl)methoxy]ethyl]-1-piperazinyl]-1-phenylpropyl]ester (Z)-2-butenedioate (1:2)]: it took a dose of 11.2 mg/kg to reach the 50% effect level in test [1] (ED50). In addition, the concentration for half-maximal inhibition (IC50) in test [2] (setting [5]) is 0.216 µM; in test [3] it was 0.0169 µM; in test [4], 0.0024 µM.
Consider `O=C(Nc1ccccc1)OC(CCN1CCN(CCOC(c2ccc(F)cc2)c2ccc(F)cc2)CC1)c1ccccc1` (stereo not drawn) [Compound 19, Phenylcarbaminic[3-[4-[2-[bis(4-fluorophenyl)methoxy]ethyl]-1-piperazinyl]-1-phenylpropyl]ester (Z)-2-butenedioate (1:2)], for which the figures for the IC50 in test [2] (setting [5]), in test [3] and in test [4] were 0.302 µM, 0.0434 µM and 0.0033 µM, respectively.
Take `CC(C)C[C@H]1C(=O)N2CCC[C@H]2[C@]2(O)O[C@](NC(=O)[C@@H]3C=C4c5cccc6[nH]c(Br)c(c56)C[C@H]4N(C)C3)(C(C)C)C(=O)N12` [bromocriptine, reference compound]: in test [1], the ED50 is 25.3 mg/kg.
In test [1], `c1cnc(N2CCN(Cc3ccc4c(c3)OCO4)CC2)nc1` [piribedil, reference compound] yielded an ED50 of 99.5 mg/kg.

Usually ED50 stands for the midpoint of the dose-response relation. A low value points to an effect at a small dose. Usually IC50 stands for the concentration needed to halve the response being measured.
